The text below walks through data of patent US20090270398A1, “Compounds, Compositions and Methods Comprising Pyridazine Derivatives” (Institute for OneWorld Health, priority 2008, published 2009).

Assay [1] deals with cholera toxin (CTX)-induced net fluid secretion in intestinal loops. It counts as in vivo, mice (CD1 strain). The following applies: 4 hours.
A further assay deals with T1, CFTR (Homo sapiens, UniProt P13569).
T1 construct: results in the phosphorylation and opening of CFTR anion channels
T1 sequence (P13569 whole entry): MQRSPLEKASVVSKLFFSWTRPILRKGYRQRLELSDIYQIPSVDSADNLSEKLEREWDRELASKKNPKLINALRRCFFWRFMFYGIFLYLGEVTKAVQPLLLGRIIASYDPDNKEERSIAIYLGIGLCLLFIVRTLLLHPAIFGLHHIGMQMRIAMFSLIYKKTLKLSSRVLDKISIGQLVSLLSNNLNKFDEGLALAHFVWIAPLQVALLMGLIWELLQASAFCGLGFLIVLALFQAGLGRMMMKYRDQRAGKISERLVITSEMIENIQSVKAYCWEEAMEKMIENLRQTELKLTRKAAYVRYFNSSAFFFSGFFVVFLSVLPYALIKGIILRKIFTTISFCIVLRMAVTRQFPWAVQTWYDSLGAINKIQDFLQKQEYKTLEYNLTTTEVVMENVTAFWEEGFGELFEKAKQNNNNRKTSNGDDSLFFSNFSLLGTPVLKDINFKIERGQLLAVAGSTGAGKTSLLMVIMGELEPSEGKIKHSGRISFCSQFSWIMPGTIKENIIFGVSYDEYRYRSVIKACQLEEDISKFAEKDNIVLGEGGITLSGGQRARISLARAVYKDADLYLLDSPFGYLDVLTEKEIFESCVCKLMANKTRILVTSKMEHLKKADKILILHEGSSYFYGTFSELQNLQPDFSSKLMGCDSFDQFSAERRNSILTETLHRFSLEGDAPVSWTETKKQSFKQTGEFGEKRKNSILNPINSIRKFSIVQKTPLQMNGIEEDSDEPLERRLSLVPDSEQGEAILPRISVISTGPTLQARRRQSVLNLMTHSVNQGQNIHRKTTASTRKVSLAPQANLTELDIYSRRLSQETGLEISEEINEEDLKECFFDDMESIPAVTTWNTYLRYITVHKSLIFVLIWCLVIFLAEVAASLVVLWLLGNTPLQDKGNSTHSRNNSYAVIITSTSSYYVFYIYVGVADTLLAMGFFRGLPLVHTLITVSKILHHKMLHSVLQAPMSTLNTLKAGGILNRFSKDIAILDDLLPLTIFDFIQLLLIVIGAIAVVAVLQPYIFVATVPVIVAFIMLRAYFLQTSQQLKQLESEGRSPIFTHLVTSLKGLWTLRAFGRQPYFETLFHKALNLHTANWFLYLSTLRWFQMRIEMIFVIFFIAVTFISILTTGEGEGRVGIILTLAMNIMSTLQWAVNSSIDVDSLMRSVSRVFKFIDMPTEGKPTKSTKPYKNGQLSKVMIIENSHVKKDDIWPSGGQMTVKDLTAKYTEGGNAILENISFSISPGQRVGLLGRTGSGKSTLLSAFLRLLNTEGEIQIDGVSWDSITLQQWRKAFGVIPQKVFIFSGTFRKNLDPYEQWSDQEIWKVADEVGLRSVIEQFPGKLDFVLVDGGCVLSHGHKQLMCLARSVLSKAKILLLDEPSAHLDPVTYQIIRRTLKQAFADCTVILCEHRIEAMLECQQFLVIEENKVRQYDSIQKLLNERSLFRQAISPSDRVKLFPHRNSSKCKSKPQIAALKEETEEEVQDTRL
Kind of assay: T84 assay (FLIPR membrane potential, forskolin/IBMX-stimulated CFTR channel activity). The conditions noted are these: average of at least 2 runs unless annotated n = 1. It counts as cell-based. As to the method:
(§1) For example, Human colonic T84 cells can be acquired from the European Collection of Cell Cultures (ECACC) and grown in standard culture conditions as described by the supplier. On the day before assay 25,000 T84 cells per well are plated into standard black walled, clear bottom 384-well assay plates in standard growth medium consisting of DMEM:F12 with 10% FBS and incubated overnight. On the day of the assay the plates are washed using a standard assay buffer (HBSS with 10 mM Hepes) and incubated for 15 minutes in serum free cell culture medium before the addition of a commercially available membrane potential sensitive fluorescent dye (FLIPR Red membrane potential dye, Molecular Devices Corporation). T84 cells are incubated with the FLIPR Red membrane potential dye for 45 minutes in the presence and absence of test compound before being transferred to a commercially available fluorescence imaging plate reader (FLIPR384, Molecular Devices Corporation). Fluorescence levels are monitored continuously every second for 150 seconds; after an initial 10 second baseline, CFTR channel activity is stimulated through the addition of 10 μM forskolin in the presence of 100 μM of the phosphodiesterase inhibitor iso-butyl-methylxanthine (IBMX). Addition of the forskolin leads to the activation of intracellular adenylyl cylase 1, elevating cAMP levels and results in the phosphorylation and opening of CFTR anion channels. CFTR channel opening causes chloride ion efflux and subsequent depolarization of the cells, which is measured by an increase in fluorescence. CFTR inhibitor compounds prevent cell depolarization and the associated increase in fluorescence.
as §1, with “Human colonic” for “For example, Human colonic”, “T84 cells are acquired from” for “T84 cells can be acquired from”, “(ECACC) and are grown in” for “(ECACC) and grown in”
Unless otherwise indicated, the IC50 values are reported as an average of at least 2 runs. Where only 1 run is used, this is indicated by the annotation “n=1.”

A word on the IC50: it is the concentration that inhibits the measured activity by half. Higher therefore signals weaker potency in that assay.

On to `OCCN(Cc1ccccc1)c1ccc(-c2cc(Cl)c(O)c(Cl)c2)nn1` [Compound 98, 4-(6-(benzyl(2-hydroxyethyl)amino)pyridazin-3-yl)-2,6-dichlorophenol], for which the “closed loop % inhibition @ 100 μg” value in assay [1] is 67.0%. The compound further yielded an IC50 on CFTR of 0.63 µM.

For `CCN(Cc1ccccc1)c1ccc(-c2cc(Cl)c(O)c(Cl)c2)nn1` [Compound 115, 4-(6-(benzyl(ethyl)amino)pyridazin-3-yl)-2,6-dichlorophenol], the “closed loop % inhibition @ 100 μg” value in assay [1] is recorded as 79.4%. At CFTR, this compound gave an IC50 of 0.01 µM.

Turning to `CCCN(Cc1ccccc1)c1ccc(-c2cc(Cl)c(O)c(Cl)c2)nn1` [Compound 126, 4-(6-(benzyl(propyl)amino)pyridazin-3-yl)-2,6-dichlorophenol], the IC50 at CFTR was determined as 0.02 µM. In other words, the double-digit nanomolar range.

At CFTR, `CCN(Cc1cccc(F)c1)c1ccc(-c2cc(Cl)c(O)c(Cl)c2)nn1` [Compound 127, 2,6-dichloro-4-(6-(ethyl(3-fluorobenzyl)amino)pyridazin-3-yl)phenol] gave an IC50 of 0.03 µM.

In turn, `CCN(Cc1ccc(OCc2ccccc2)cc1)c1ccc(-c2cc(Cl)c(O)c(Cl)c2)nn1` [Compound 128, 4-(6-((4-(benzyloxy)benzyl)(ethyl)amino)pyridazin-3-yl)-2,6-dichlorophenol] gave an IC50 against CFTR of 0.37 µM.

`CCOc1ccc(CN(CC)c2ccc(-c3cc(Cl)c(O)c(Cl)c3)nn2)cc1OC` [Compound 129, 2,6-dichloro-4-(6-((4-ethoxy-3-methoxybenzyl)(ethyl)amino)pyridazin-3-yl)phenol] showed an IC50 on CFTR of 1.16 µM.

In turn, `OCCN(Cc1cccc(OCc2ccccc2Cl)c1)c1ccc(-c2cc(Cl)c(O)c(Cl)c2)nn1` [Compound 130, 2,6-dichloro-4-(6-((3-(2-chlorobenzyloxy)benzyl)(2-hydroxyethyl)amino)pyridazin-3-yl)phenol] yielded a 50% inhibitory concentration (IC50) against CFTR of 2.27 µM.

At CFTR, `CCN(Cc1ccc(OC)c(F)c1)c1ccc(-c2cc(Cl)c(O)c(Cl)c2)nn1` [Compound 131, 2,6-dichloro-4-(6-(ethyl(3-fluoro-4-methoxybenzyl)amino)pyridazin-3-yl)phenol] gave an IC50 of 1.46 µM.

At CFTR, `CN(Cc1ccc2ncccc2c1)c1ccc(-c2cc(Cl)c(O)c(Cl)c2)nn1` [Compound 132, 2,6-dichloro-4-(6-(methyl(quinolin-6-ylmethyl)amino)pyridazin-3-yl)phenol] had an IC50 of 6.69 µM.

In the case of `Oc1c(Cl)cc(-c2ccc(N(Cc3ccccc3)Cc3ccccc3)nn2)cc1Cl` [Compound 133, 2,6-dichloro-4-(6-(dibenzylamino)pyridazin-3-yl)phenol], the IC50 on CFTR came to 0.38 µM.

With `COc1ccc(CN(CCO)c2ccc(-c3cc(Cl)c(O)c(Cl)c3)nn2)cc1OC` [Compound 134, 2,6-dichloro-4-(6-((3,4-dimethoxybenzyl)(2-hydroxyethyl)amino)pyridazin-3-yl)phenol], the midpoint of inhibition against CFTR, the IC50, lay at 6.9 µM.

At CFTR, `Oc1c(Cl)cc(-c2ccc(N3CCN(c4cccc(F)c4)CC3)nn2)cc1Cl` [Compound 135, 2,6-dichloro-4-(6-(4-(3-fluorophenyl)piperazin-1-yl)pyridazin-3-yl)phenol] yielded an IC50 of 19.6 µM.

For the compound `Oc1c(Cl)cc(-c2ccc(N3CCC(Cc4ccccc4)CC3)nn2)cc1Cl` [Compound 136, 4-(6-(4-benzylpiperidin-1-yl)pyridazin-3-yl)-2,6-dichlorophenol], 24.9 µM corresponded to half-maximal inhibition on CFTR (IC50). The IC50 values of the last two compounds are within 1.5-fold of each other.

As for `Oc1c(Cl)cc(-c2ccc(NCc3ccc(Cl)c(Cl)c3)nn2)cc1Cl` [Compound 137, 2,6-dichloro-4-(6-(3,4-dichlorobenzylamino)pyridazin-3-yl)phenol], at CFTR, the half-maximal inhibitory concentration (IC50) turned out to be 6 µM.

The compound `Oc1c(Cl)cc(-c2ccc(NCc3cc(F)cc(C(F)(F)F)c3)nn2)cc1Cl` [Compound 138, 2,6-dichloro-4-(6-(3-fluoro-5-(trifluoromethyl)benzylamino)pyridazin-3-yl)phenol] yielded an IC50 against CFTR of 9.58 µM. Compared with the last compound, the IC50 is about 1.6-fold higher.
